# Target: T1, human PAR-2 (hPAR-2) receptor (Homo sapiens, UniProt P55085)
# T1 construct: expressed in HEK-293 cells in an endogenous manner; endogenous in cells; host or cells: HEK-293
# T1 sequence (P55085 26-397): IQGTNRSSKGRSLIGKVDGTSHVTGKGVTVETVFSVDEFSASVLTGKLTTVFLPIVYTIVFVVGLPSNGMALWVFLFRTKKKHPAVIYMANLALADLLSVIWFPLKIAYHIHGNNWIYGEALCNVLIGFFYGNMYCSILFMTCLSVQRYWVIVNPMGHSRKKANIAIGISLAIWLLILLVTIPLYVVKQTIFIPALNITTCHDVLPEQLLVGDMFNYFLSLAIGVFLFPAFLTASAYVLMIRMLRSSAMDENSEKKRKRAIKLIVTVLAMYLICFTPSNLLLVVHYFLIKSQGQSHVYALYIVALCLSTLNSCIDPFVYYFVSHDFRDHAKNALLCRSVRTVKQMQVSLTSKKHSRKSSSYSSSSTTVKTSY
# Assay: In vitro human PAR-2 functional antagonist activity using calcium assays
# Type: cell-based
# Details: hPAR-2 endogenously expressed in HEK-293 cells; stimulated by 2-Furoyl-LIGRLO-NH2 peptide; Fluo4AM intracellular calcium, FLIPR Tetra
# How it was run: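 Antagonism was measured as reduced calcium response to 2-Furoyl-LIGRLO-NH2 (dosed at its 80%-of-maximum concentration), recorded for 5 min. This followed a 10 min compound pre-incubation on Fluo4AM-loaded HEK-293 cells expressing native hPAR-2. Signals were normalised to buffer and agonist-alone controls.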
row,Structure (SMILES),IC50 [nM]
1,Cc1cc(N2CCN(C(=O)c3cnc4c(n3)C(C)(C)CN4CCc3ccc(F)cc3)C(C)(C)C2)nc(C)c1C(=O)O [Example 213],500 to 10000
2,"Cc1cc(N2CCN(C(=O)c3ccc4c(n3)C3(CN4c4ccc(Cl)c(F)c4)CC(C)(C)C3)C(C)(C)C2)nc(C)c1C(=O)O [Example 215, 6-(4-(1′-(4-chloro-3-fluorophenyl)-3,3-dimethyl-1′,2′-dihydrospiro[cyclobutane-1,3′-pyrrolo[3,2-b]pyridine]-5′-carbonyl)-3,3-dimethylpiperazin-1-yl)-2,4-dimethylnicotinic acid]",< 500
3,"CC1(C)CN(c2cc(F)c(F)c(F)c2)c2ncc(C(=O)N3CCN(c4ccc(CC(=O)O)cn4)CC3(C)C)nc21 [Example 217, 2-(6-(4-(7,7-dimethyl-5-(3,4,5-trifluorophenyl)-6,7-dihydro-5H-pyrrolo[2,3-b]pyrazine-2-carbonyl)-3,3-dimethylpiperazin-1-yl)pyridin-3-yl)acetic acid]",< 500
4,"CC1(C)CN(c2ccc(C(F)(F)F)c(Cl)c2)c2ncc(C(=O)N3CCN(c4ccc(CC(=O)O)cn4)CC3(C)C)nc21 [Example 219, 2-(6-(4-(5-(3-chloro-4-(trifluoromethyl)phenyl)-7,7-dimethyl-6,7-dihydro-5H-pyrrolo[2,3-b]pyrazine-2-carbonyl)-3,3-dimethylpiperazin-1-yl)pyridin-3-yl)acetic acid]",< 500
5,"CC1(C)CN(c2ccc(Cl)c(Cl)c2)c2ncc(C(=O)N3CCN(c4ccc(CC(=O)O)cn4)CC3(C)C)nc21 [Example 221, 2-(6-(4-(5-(3,4-dichlorophenyl)-7,7-dimethyl-6,7-dihydro-5H-pyrrolo[2,3-b]pyrazine-2-carbonyl)-3,3-dimethylpiperazin-1-yl)pyridin-3-yl)acetic acid]",< 500
6,"Cc1cc(N2CCN(C(=O)c3cnc4c(n3)C3(CCCC3)CN4c3ccc(F)c(F)c3)C(C)(C)C2)nc(C)c1C(=O)O [Example 223, 6-(4-(5′-(3,4-difluorophenyl)-5′,6′-dihydrospiro[cyclopentane-1,7′-pyrrolo[2,3-b]pyrazine]-2′-carbonyl)-3,3-dimethylpiperazin-1-yl)-2,4-dimethylnicotinic acid]",< 500
7,"COCC1CC2(C1)CN(c1ccc(Cl)c(F)c1)c1ccc(C(=O)N3CCN(c4cc(C)c(C(=O)O)c(C)n4)CC3(C)C)nc12 (centres unmarked) [Example 225, 6-(4-(1′-(4-chloro-3-fluorophenyl)-3-(methoxymethyl)-1′,2′-dihydrospiro[cyclobutane-1,3′-pyrrolo[3,2-b]pyridine]-5′-carbonyl)-3,3-dimethylpiperazin-1-yl)-2,4-dimethylnicotinic acid]",< 500
8,"CC1(C)CN(c2ccc(CC(=O)O)cn2)CCN1C(=O)c1cnc2c(n1)C1(CCCC1)CN2c1ccc(F)c(F)c1 [Example 229, 2-(6-(4-(5′-(3,4-difluorophenyl)-5′,6′-dihydrospiro[cyclopentane-1,7′-pyrrolo[2,3-b]pyrazine]-2′-carbonyl)-3,3-dimethylpiperazin-1-yl)pyridin-3-yl)acetic acid]",< 500
9,"CC1(C)CN(c2ccc(CC(=O)O)cn2)CCN1C(=O)c1cnc2c(n1)C1(CCC1)CN2c1ccc(Cl)c(F)c1 [Example 231, 2-(6-(4-(5′-(4-chloro-3-fluorophenyl)-5′,6′-dihydrospiro[cyclobutane-1,7′-pyrrolo[2,3-b]pyrazine]-2′-carbonyl)-3,3-dimethylpiperazin-1-yl)pyridin-3-yl)acetic acid]",< 500
10,"Cc1cc(N2CCN(C(=O)c3cnc4c(n3)C3(CN4c4ccc(F)c(F)c4)CC(C)(C)C3)C(C)(C)C2)nc(C)c1C(=O)O [Example 233, 6-(4-(5′-(3,4-difluorophenyl)-3,3-dimethyl-5′,6′-dihydrospiro[cyclobutane-1,7′-pyrrolo[2,3-b]pyrazine]-2′-carbonyl)-3,3-dimethylpiperazin-1-yl)-2,4-dimethylnicotinic acid]",< 500
11,"Cc1cc(N2CCN(C(=O)c3cnc4c(n3)C3(CN4c4cc(F)c(F)c(F)c4)CC(C)(C)C3)C(C)(C)C2)nc(C)c1C(=O)O [Example 235, 6-(4-(3,3-dimethyl-5′-(3,4,5-trifluorophenyl)-5′,6′-dihydrospiro[cyclobutane-1,7′-pyrrolo[2,3-b]pyrazine]-2′-carbonyl)-3,3-dimethylpiperazin-1-yl)-2,4-dimethylnicotinic acid]",< 500
12,"Cc1cc(N2CCN(C(=O)c3cnc4c(n3)C3(CCC3)CN4c3ccc(Cl)c(F)c3)C(C)(C)C2)nc(C)c1C(=O)O [Example 237, 6-(4-(5′-(4-chloro-3-fluorophenyl)-5′,6′-dihydrospiro[cyclobutane-1,7′-pyrrolo[2,3-b]pyrazine]-2′-carbonyl)-3,3-dimethylpiperazin-1-yl)-2,4-dimethylnicotinic acid]",< 500
13,"COCC1CC2(C1)CN(c1ccc(Cl)c(F)c1)c1ccc(C(=O)N3CCN(c4ccc(CC(=O)O)cn4)CC3(C)C)nc12 (centres unmarked) [Example 239, 2-(6-(4-(1′-(4-chloro-3-fluorophenyl)-3-(methoxymethyl)-1′,2′-dihydrospiro[cyclobutane-1,3′-pyrrolo[3,2-b]pyridine]-5′-carbonyl)-3,3-dimethylpiperazin-1-yl)pyridin-3-yl)acetic acid]",< 500
14,"CC1(C)CN(c2cc(F)c(Cl)c(F)c2)c2ncc(C(=O)N3CCN(c4ccc(CC(=O)O)cn4)CC3(C)C)nc21 [Example 241, 2-(6-(4-(5-(4-chloro-3,5-difluorophenyl)-7,7-dimethyl-6,7-dihydro-5H-pyrrolo[2,3-b]pyrazine-2-carbonyl)-3,3-dimethylpiperazin-1-yl)pyridin-3-yl)acetic acid]",< 500
15,"CC1(C)CN(c2ccc(CC(=O)O)cn2)CCN1C(=O)c1cnc2c(n1)C1(CCCC1)CN2c1ccc(Cl)c(F)c1 [Example 243, 2-(6-(4-(5′-(4-chloro-3-fluorophenyl)-5′,6′-dihydrospiro[cyclopentane-1,7′-pyrrolo[2,3-b]pyrazine]-2′-carbonyl)-3,3-dimethylpiperazin-1-yl)pyridin-3-yl)acetic acid]",< 500
16,"CC1(C)CC2(CN(c3ccc(F)c(F)c3)c3ncc(C(=O)N4CCN(c5ccc(CC(=O)O)cn5)CC4(C)C)nc32)C1 [Example 245, 2-(6-(4-(5′-(3,4-difluorophenyl)-3,3-dimethyl-5′,6′-dihydrospiro[cyclobutane-1,7′-pyrrolo[2,3-b]pyrazine]-2′-carbonyl)-3,3-dimethylpiperazin-1-yl)pyridin-3-yl)acetic acid]",< 500
17,"Cc1cc(N2CCN(C(=O)c3cnc4c(n3)C3(CN4c4ccc(Cl)c(F)c4)CC(C)(C)C3)C(C)(C)C2)nc(C)c1C(=O)O [Example 247, 6-(4-(5′-(4-chloro-3-fluorophenyl)-3,3-dimethyl-5′,6′-dihydrospiro[cyclobutane-1,7′-pyrrolo[2,3-b]pyrazine]-2′-carbonyl)-3,3-dimethylpiperazin-1-yl)-2,4-dimethylnicotinic acid]",< 500
18,"Cc1cc(N2CCN(C(=O)c3cnc4c(n3)C(C)(C)CN4c3ccc(Cl)c(Cl)c3)C(C)(C)C2)nc(C)c1C(=O)O [Example 249, 6-(4-(5-(3,4-dichlorophenyl)-7,7-dimethyl-6,7-dihydro-5H-pyrrolo[2,3-b]pyrazine-2-carbonyl)-3,3-dimethylpiperazin-1-yl)-2,4-dimethylnicotinic acid]",< 500
19,"Cc1ccc(N2CC(C)(C)c3nc(C(=O)N4CCN(c5ccc(CC(=O)O)cn5)CC4(C)C)cnc32)cc1Cl [Example 251, 2-(6-(4-(5-(3-chloro-4-methylphenyl)-7,7-dimethyl-6,7-dihydro-5H-pyrrolo[2,3-b]pyrazine-2-carbonyl)-3,3-dimethylpiperazin-1-yl)pyridin-3-yl)acetic acid]",< 500
20,"COC1c2nc(C(=O)N3CCN(c4ccc(CC(=O)O)cn4)CC3(C)C)ccc2N(c2ccc(Cl)c(F)c2)CC1(C)C (centres unmarked) [Example 253, 2-(6-(4-(5-(4-chloro-3-fluorophenyl)-8-methoxy-7,7-dimethyl-5,6,7,8-tetrahydro-1,5-naphthyridine-2-carbonyl)-3,3-dimethylpiperazin-1-yl)pyridin-3-yl)acetic acid]",500 to 10000
21,"COc1cc2c(nc1C(=O)N1CCN(c3ccc(CC(=O)O)cn3)CC1(C)C)C(C)(C)CN2c1ccc(Cl)c(F)c1 [Example 255, 2-(6-(4-(1-(4-chloro-3-fluorophenyl)-6-methoxy-3,3-dimethyl-2,3-dihydro-1H-pyrrolo[3,2-b]pyridine-5-carbonyl)-3,3-dimethylpiperazin-1-yl)pyridin-3-yl)acetic acid]",> 10000
22,"CC(C)CN1CC(C)(c2ccc(Cl)c(F)c2)c2ccc(C(=O)N3CCN(c4ccc(CC(=O)O)cn4)CC3(C)C)nc21 (centres unmarked) [Example 257, 2-(6-(4-(3-(4-chloro-3-fluorophenyl)-1-isobutyl-3-methyl-2,3-dihydro-1H-pyrrolo[2,3-b]pyridine-6-carbonyl)-3,3-dimethylpiperazin-1-yl)pyridin-3-yl)acetic acid]",500 to 10000
23,"CC1(C)CN(c2ccc(Cl)c(F)c2)c2cc(O)c(C(=O)N3CCN(c4ccc(CC(=O)O)cn4)CC3(C)C)nc21 [Example 258, 2-(6-(4-(1-(4-chloro-3-fluorophenyl)-6-hydroxy-3,3-dimethyl-2,3-dihydro-1H-pyrrolo[3,2-b]pyridine-5-carbonyl)-3,3-dimethylpiperazin-1-yl)pyridin-3-yl)acetic acid]",500 to 10000

# From patent US20250320224A1 (DOMAIN THERAPEUTICS, priority 2022, published 2025)
